Measurements reported in patent US20250163057A1, “DCN-1 MODULATING COMPOUNDS AND METHODS OF USE THEREOF” (Cellarity, Inc., priority 2023, published 2025).

What was measured:
[1] = system: fetal hemoglobin gene HBG1; assay: HBG1 Nanostring Assay in CD34+ HSPC erythroid differentiation culture; assay type: cell-based, human; conditions: for EC50: Homo sapiens, 240 h, HBG1 induction, Day10 of erythroid differentiation; for Nanostring Ymax obs (%): relative to a control compound (C1)
Outline: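 HBG1 counts came from direct nCounter hybridization (67° C, 22 h) of day-10 lysates, normalized to ERCC positive controls and a housekeeping gene, giving EC50 and Ymax versus a reference compound. Compounds in 0.1% DMSO were present from day −2 while cells underwent EPO/SCF/IL-3 erythroid differentiation, with IL-3 dropped at day 7, at 37° C.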

[2] = system: Cullin-3 (CUL3) neddylation; assay: AlphaLISA assay for Cullin-3 (CUL3) neddylation in TF 1 cells; assay type: cell-based; conditions: Homo sapiens, TF-1, 3 h, 3 hours treatment
Outline: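 Neddylated CUL3 was quantified by AlphaLISA in lysates of TF 1 cells exposed for 3 h to test compound in IMDM without supplements. Percent inhibition set between vehicle and 1 μM DI-1548 positive control; IC50 derived by Hill-equation fitting of dose-response curves.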

DCN1 protein = DCN1 protein (Homo sapiens (Human), UniProt Q96GG9); assay: Intact Protein MS Analysis with the RapidFire-TOF System (covalent adduct formation); assay type: binding; conditions: MS Emax; 400 nM DCN1, 3 hours at room temperature
DCN1 protein, sequence (Q96GG9 whole entry): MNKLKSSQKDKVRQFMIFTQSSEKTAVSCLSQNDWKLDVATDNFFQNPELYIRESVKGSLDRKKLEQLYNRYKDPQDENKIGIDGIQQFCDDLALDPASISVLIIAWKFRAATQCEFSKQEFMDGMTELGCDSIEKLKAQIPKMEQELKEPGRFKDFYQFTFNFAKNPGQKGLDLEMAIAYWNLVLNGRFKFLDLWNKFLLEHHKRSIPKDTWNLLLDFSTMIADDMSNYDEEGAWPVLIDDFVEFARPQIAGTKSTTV
Outline: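 Tag-cleaved human DCN1 (400 nM) expressed in E. coli, in 25 mM Tris-HCl, 200 mM NaCl, 1 mM DTT, was incubated with 11 compound concentrations for 3 h at room temperature and quenched with 0.2% formic acid. Intact-protein Q-TOF MS with deconvolution detected the compound adduct mass.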

Row | EC50 [1] [nM] | IC50 [2] [nM] | SMILES | Nanostring Ymax obs (%) [1] | % Adduct Formation (DCN1 protein)
1 | > 1000 | 100 to 1000 | CCN1C(=O)[C@@H](NC(=O)c2cccc(C(F)(F)F)c2)[C@@H](c2ccc(F)cc2)c2c(NC(=O)[C@@H](C)Br)nn(-c3ccccc3)c21 (mixture of isomers) [Compound I-177] | ++ (Nanostring Ymax greater than 50.0 and less than or equal to 100.0) | + (MS Emax % adduct formation greater than or equal to 0.0 and less than or equal to 30.0)
2 | > 1000 | > 1000 | CCN1C(=O)[C@@H](NC(=O)c2cccc(C(F)(F)F)c2)[C@@H](c2ccc(F)cc2)c2c([C@@H](C)NC(=O)CCl)nn(-c3ccccc3)c21 (mixture of isomers) [Compound I-190] | ++ (Nanostring Ymax greater than 50.0 and less than or equal to 100.0) | + (MS Emax % adduct formation greater than or equal to 0.0 and less than or equal to 30.0)
3 | ≤ 100 | ≤ 100 | C#CC(=O)N[C@H](C)c1nn(-c2ccccc2)c2c1[C@H](c1ccc(F)cc1)[C@H](NC(=O)c1cccc(C(F)(F)F)c1)C(=O)N2CC (mixture of isomers) [Compound I-236] | + (Nanostring Ymax greater than or equal to 0.0 and less than or equal to 50.0) | +++ (MS Emax % adduct formation greater than 80.0 and less than or equal to 100.0)
4 | 100 to 1000 | ≤ 100 | C=C(CN(C)C)C(=O)NCc1nn(-c2ccccc2)c2c1[C@H](c1ccc(F)cc1)[C@H](NC(=O)c1cccc(C(F)(F)F)c1)C(=O)N2CC (racemic) [Compound I-18] | + (Nanostring Ymax greater than or equal to 0.0 and less than or equal to 50.0) | +++ (MS Emax % adduct formation greater than 80.0 and less than or equal to 100.0)
5 | 100 to 1000 | ≤ 100 | CCN1C(=O)[C@@H](NC(=O)c2cccc(C(F)(F)F)c2)[C@@H](c2ccc(F)cc2)c2c(CNC(=O)/C(C#N)=C/C(C)(C)C)nn(-c3ccccc3)c21 (racemic) [Compound I-173] | ++ (Nanostring Ymax greater than 50.0 and less than or equal to 100.0) | +++ (MS Emax % adduct formation greater than 80.0 and less than or equal to 100.0)
6 | 100 to 1000 | ≤ 100 | C=C(CN(C)C)C(=O)N(C)Cc1nn(-c2ccccc2)c2c1[C@H](c1ccc(F)cc1)[C@H](NC(=O)c1cccc(C(F)(F)F)c1)C(=O)N2CC (racemic) [Compound I-178] | ++ (Nanostring Ymax greater than 50.0 and less than or equal to 100.0) | +++ (MS Emax % adduct formation greater than 80.0 and less than or equal to 100.0)
7 | > 1000 | 100 to 1000 | CCN1C(=O)[C@@H](NC(=O)c2cccc(C(F)(F)F)c2)[C@@H](c2ccc(F)cc2)c2c(CNC(=O)[C@H](C)Cl)nn(-c3ccccc3)c21 (racemic) [Compound I-179] | + (Nanostring Ymax greater than or equal to 0.0 and less than or equal to 50.0) | + (MS Emax % adduct formation greater than or equal to 0.0 and less than or equal to 30.0)
8 | > 1000 | 100 to 1000 | CCN1C(=O)[C@@H](NC(=O)c2cccc(C(F)(F)F)c2)[C@@H](c2ccc(F)cc2)c2c(CNC(=O)[C@H](C)Br)nn(-c3ccccc3)c21 (racemic) [Compound I-180] | + (Nanostring Ymax greater than or equal to 0.0 and less than or equal to 50.0) | + (MS Emax % adduct formation greater than or equal to 0.0 and less than or equal to 30.0)
9 | ≤ 100 | ≤ 100 | C#CC(=O)NCc1nn(-c2ccccc2)c2c1[C@H](c1ccc(F)cc1)[C@H](NC(=O)c1cccc(C(F)(F)F)c1)C(=O)N2CC (racemic) [Compound I-181] | + (Nanostring Ymax greater than or equal to 0.0 and less than or equal to 50.0) | + (MS Emax % adduct formation greater than or equal to 0.0 and less than or equal to 30.0)
10 |  | 100 to 1000 | CC#CC(=O)NCc1nn(-c2ccccc2)c2c1[C@H](c1ccc(F)cc1)[C@H](NC(=O)c1cccc(C(F)(F)F)c1)C(=O)N2CC (racemic) [Compound I-184] | ++ (Nanostring Ymax greater than 50.0 and less than or equal to 100.0) | + (MS Emax % adduct formation greater than or equal to 0.0 and less than or equal to 30.0)
11 |  | 100 to 1000 | C=C(CN1CCOCC1)C(=O)N(C)Cc1nn(-c2ccccc2)c2c1[C@H](c1ccc(F)cc1)[C@H](NC(=O)c1cccc(C(F)(F)F)c1)C(=O)N2CC (racemic) [Compound I-185] | ++ (Nanostring Ymax greater than 50.0 and less than or equal to 100.0) | + (MS Emax % adduct formation greater than or equal to 0.0 and less than or equal to 30.0)
12 | 100 to 1000 | 100 to 1000 | CCN1C(=O)[C@@H](NC(=O)c2cccc(C(F)(F)F)c2)[C@@H](c2ccc(F)cc2)c2c(Cn3sccc3=O)nn(-c3ccccc3)c21 (racemic) [Compound I-192, rac-N-((4R,5R)-7-ethyl-4-(4-fluorophenyl)-6-oxo-3-((3-oxoisothiazol-2(3H)-yl)methyl)-1-phenyl-4,5,6,7-tetrahydro-1H-pyrazolo[3,4-b]pyridine-5-yl)-3-(trifluoromethyl)benzamide] | + (Nanostring Ymax greater than or equal to 0.0 and less than or equal to 50.0) | ++ (MS Emax % adduct formation greater than 30.0 and less than or equal to 80.0)
13 | ≤ 100 | 100 to 1000 | C#CC(=O)N(C)Cc1nn(-c2ccccc2)c2c1[C@H](c1ccc(F)cc1)[C@H](NC(=O)c1cccc(C(F)(F)F)c1)C(=O)N2CC (racemic) [Compound I-201] | + (Nanostring Ymax greater than or equal to 0.0 and less than or equal to 50.0) | +++ (MS Emax % adduct formation greater than 80.0 and less than or equal to 100.0)
14 |  | 100 to 1000 | C=CC(=O)NCc1nn(-c2ccccc2)c2c1[C@H](c1ccc(F)cc1)[C@H](NC(=O)c1cccc(C(F)(F)F)c1)C(=O)N2CC (racemic) [Compound I-202] | + (Nanostring Ymax greater than or equal to 0.0 and less than or equal to 50.0) | + (MS Emax % adduct formation greater than or equal to 0.0 and less than or equal to 30.0)
15 | 100 to 1000 | 100 to 1000 | CCN1C(=O)[C@@H](NC(=O)c2cccc(C(F)(F)F)c2)[C@@H](c2ccc(F)cc2)c2c(CNC(=O)/C=C/CN3CCC3)nn(-c3ccccc3)c21 (racemic) [Compound I-203] | + (Nanostring Ymax greater than or equal to 0.0 and less than or equal to 50.0) | + (MS Emax % adduct formation greater than or equal to 0.0 and less than or equal to 30.0)
16 | > 1000 | 100 to 1000 | CCN1C(=O)[C@@H](NC(=O)c2cccc(C(F)(F)F)c2)[C@@H](c2ccc(F)cc2)c2c(CNC(=O)C3=CCC3)nn(-c3ccccc3)c21 (racemic) [Compound I-204] | + (Nanostring Ymax greater than or equal to 0.0 and less than or equal to 50.0) | + (MS Emax % adduct formation greater than or equal to 0.0 and less than or equal to 30.0)
